Laboratory results taken from patent publication US20250367308A1, “LIGAND-DRUG CONJUGATE OF CAMPTOTHECIN ANALOGS, INTERMEDIATES, PREPARATION METHOD THEREFOR, PHARMACEUTICAL COMPOSITION AND APPLICATION THEREOF” (SHANGHAI MICURX PHARMACEUTICAL CO.,LTD., priority 2022, published 2025).

Tested on: Human lung adenocarcinoma cell line A549
Assay: In vitro cytotoxicity test of camptothecin payloads (CellTiter-Glo)
Type: cell-based
Conditions: for IC50: Homo sapiens, A549, 72 h, read-out: A549 Cytotoxicity IC50 (nM)
Description: Human lung adenocarcinoma cell line A549 was used to evaluate the cytotoxicity of small molecule fragment of the present invention. A549 cells were seeded to a 96-well plate at 2000 cells per well.

Row | Compound | IC50 | relative A549 cytotoxic potency in words (comparison between analogs of Table 1) | relative A549 cytotoxic potency in words (human, 3 days)
1 | CC[C@@]1(O)C(=O)OCc2c1cc1n(c2=O)Cc2c-1nc1cc(F)c(C)c3c1c2[C@@H](NC(=O)CO)CC3 [Dxd, reference compound] | 78 nM | – | –
2 | CC[C@@]1(O)C(=O)OCc2c1cc1n(c2=O)Cc2c-1nc1cc(F)c(C)cc1c2CN1CC[C@@H](O)C1=O [Example 1, (S)-4-ethyl-8-fluoro-4-hydroxy-11-(((R)-3-hydroxy-2-oxopyrrolidin-1-yl)methyl)-9-methyl-1H-pyrano[3′,4′:6,7] indolizino[1,2-b]quinoline-3,14(4H,12H)-dione] | 515 nM | much less potent | –
3 | CC[C@@]1(O)C(=O)OCc2c1cc1n(c2=O)Cc2c-1nc1cc(F)c(C)cc1c2CN1CCC(O)C1 (stereo partly drawn) [Example 2, (4S)-4-ethyl-8-fluoro-4-hydroxy-11-((3-hydroxypyrrolidin-1-yl)methyl)-9-methyl-1H-pyrano[3′,4′:6,7] indolizino[1,2-b]quinoline-3,14(4H,12H)-dione] | 138 nM | – | –
4 | CC[C@@]1(O)C(=O)OCc2c1cc1n(c2=O)Cc2c-1nc1cc(F)c(C)cc1c2CN1CCCC1CO (stereo partly drawn) [Example 5, (4S)-4-ethyl-8-fluoro-4-hydroxy-11-((2-(hydroxymethyl)pyrrolidin-1-yl)methyl)-9-methyl-1H-pyrano[3′,4′:6,7] indolizino[1,2-b]quinoline-3,14(4H,12H)-dione] | 65 nM | – | –
5 | CC[C@@]1(O)C(=O)OCc2c1cc1n(c2=O)Cc2c-1nc1cc(F)c(C)cc1c2CN1CCC(CO)C1 (stereo partly drawn) [Example 8, (4S)-4-ethyl-8-fluoro-4-hydroxy-11-((3-(hydroxymethyl)pyrrolidin-1-yl)methyl)-9-methyl-1H-pyrano[3′,4′:6,7] indolizino[1,2-b]quinoline-3,14(4H,12H)-dione] | 82 nM | – | –
6 | CC[C@@]1(O)C(=O)OCc2c1cc1n(c2=O)Cc2c-1nc1cc(F)c(C)cc1c2CN1CC(O)C1 [Example 9, (S)-4-ethyl-8-fluoro-4-hydroxy-11-((3-hydroxyazetidin-1-yl)methyl)-9-methyl-1H-pyrano[3′,4′:6,7] indolizino[1,2-b]quinoline-3,14(4H,12H)-dione] | 550 nM | – | –
7 | CC[C@@]1(O)C(=O)OCc2c1cc1n(c2=O)Cc2c-1nc1cc(F)c(C)cc1c2CN1CCC(CO)CC1 [Example 10, (S)-4-ethyl-8-fluoro-4-hydroxy-11-((4-(hydroxymethyl)piperidin-1-yl)methyl)-9-methyl-1H-pyrano[3′,4′:6,7] indolizino[1,2-b]quinoline-3,14(4H,12H)-dione] | 67 nM | – | less potent than Example 17
8 | CC[C@@]1(O)C(=O)OCc2c1cc1n(c2=O)Cc2c-1nc1cc(F)c(C)cc1c2CN1CCCCC1CO (stereo partly drawn) [Example 11, (4S)-4-ethyl-8-fluoro-4-hydroxy-11-((2-(hydroxymethyl)piperidin-1-yl)methyl)-9-methyl-1H-pyrano[3′,4′:6,7] indolizino[1,2-b]quinoline-3,14(4H,12H)-dione] | 60 nM | – | less potent than Example 17
9 | CC[C@@]1(O)C(=O)OCc2c1cc1n(c2=O)Cc2c-1nc1cc(F)c(C)cc1c2CN1CCCC(CO)C1 (stereo partly drawn) [Example 12, (4S)-4-ethyl-8-fluoro-4-hydroxy-11-((3-(hydroxymethyl)piperidin-1-yl)methyl)-9-methyl-1H-pyrano[3′,4′:6,7] indolizino[1,2-b]quinoline-3,14(4H,12H)-dione] | 90 nM | – | less potent than Example 17
10 | CC[C@@]1(O)C(=O)OCc2c1cc1n(c2=O)Cc2c-1nc1cc(F)c(C)cc1c2CN1CCC(C(C)O)CC1 (stereo partly drawn) [Example 13, (4S)-4-ethyl-8-fluoro-4-hydroxy-11-((4-(1-hydroxyethyl)piperidin-1-yl)methyl)-9-methyl-1H-pyrano[3′,4′:6,7] indolizino[1,2-b]quinoline-3,14(4H,12H)-dione] | 33 nM | – | –
